Data from patent US20200306333A1, “COMPOSITION FOR PREVENTING OR TREATING MUSCLE ATROPHY COMPRISING LYCII RADICIS CORTEX” (Industry-University Cooperation Foundation Hanyang …, priority 2019, published 2020).

Experiments:
Format in all cases: cell-based, mouse
Conditions in all cases: dexamethasone 1 μM
atrogin-1/MAFbx = assay: Western blotting of atrogin-1/MAFbx in C2C12 myotubes
Text: (§1) Dexamethasone induces muscle atrophy by inhibiting muscle synthesis and inducing protein degradation. The effect of preventing and improving muscle atrophy of the lycii radicis cortex extract was investigated by inducing muscle atrophy by treating the differentiation-induced C2C12 cells of Example 2-1 with dexamethasone and then treating the muscle atrophy-induced cells with the lycii radicis cortex extract. Detailed experimental conditions are as follows.
(§2) (1) Control: The differentiated C2C12 cells were treated only with DMEM/high glucose supplemented with 1% penicillin for 48 hours.
(§3) (2) Negative control: The C2C12 cells were treated with DMEM/high glucose supplemented with 1% penicillin and 1 μM dexamethasone for 48 hours.
(§4) (3) Control+lycii radicis cortex extract: The cells were treated with 30 μg/mL of the lycii radicis cortex extract for 48 hours under the same condition as the control of (1).
(§5) (4) Negative control+lycii radicis cortex extract: The cells were treated with 30 μg/mL of the lycii radicis cortex extract for 48 hours under the same condition as the negative control of (2). […]

MuRF-1 = assay: Western blotting of MuRF-1 in C2C12 myotubes
Text: as §1, §2, §3, §4, §5

C2C12 myotubes = assay: Diameter (thickness) of C2C12 myotubes, dexamethasone-induced muscle atrophy
Protocol: C2C12 mouse myoblasts acquired from the Korean Collection for Type Cultures of the Korea Research Institute of Bioscience and Biotechnology were induced to divide for a total of 6 times (3 times×2 days). After the division was completed sufficiently, the C2C12 cells were seeded onto a 12-well plate and then divided for 2 days. As a division medium, HyClone™ DMEM/high glucose supplemented with 10% FBS (fetal bovine serum) and 1% penicillin was used.
When each well of the 12-well plate reached 90% confluency, the cells were treated with a differentiation medium (HyClone™ DMEM/high glucose supplemented with 2% HS (horse serum) and 1% penicillin). The differentiation medium was replaced every 2 days, and the treatment was performed for 6 days. Then, the differentiation-induced C2C12 myotubes were treated with HyClone™ supplemented with 1% penicillin for 24 hours and then subjected to the following experiment.
Dexamethasone induces muscle atrophy by inhibiting muscle synthesis and inducing protein degradation. […]
After treating the control groups and test groups for 48 hours in Example 2-2, the cells were imaged using the automated cell imaging system JuLi™ Stage and the thickness of the imaged cells was measured using the cell processing program Image J, with 50 cells per group.

SMILES: C[C@@H]1C[C@H]2[C@@H]3CCC4=CC(=O)C=C[C@]4(C)[C@@]3(F)[C@@H](O)C[C@]2(C)[C@@]1(O)C(=O)CO [dexamethasone]
- increase of activity of atrogin-1/MAFbx as compared to the control group (atrogin-1/MAFbx): 3.404 fold
- Atrogin-1/MAFbx vs. GAPDH (atrogin-1/MAFbx; 48 hours, Control = 100): 340.3945
- increase of activity of MuRF-1 as compared to the control group (MuRF-1): 3.513 fold
- MuRF-1 vs. GAPDH (MuRF-1; 48 hours, Control = 100): 351.2904
- Average thickness (μm) of 50 cells (C2C12 myotubes; 48 hours, C2C12 myotubes): 7.5933 μm
- decrease in thickness as compared to the control group (C2C12 myotubes; p<0.005): 30.54%
